# Test results from patent US20230257374A1, “NOVEL KRAS G12C PROTEIN INHIBITOR, PREPARATION METHOD THEREFOR, AND USE THEREOF” (INNOVENT BIOLOGICS (SUZHOU) CO., LTD., priority 2019, published 2023).
# Assays:
# [1] = biological target: T1, KRAS G12C protein (Homo sapiens, UniProt P01116, G12C); experiment: ERK protein phosphorylation assay (p-ERK) in H358 cells; type: cell-based; parameters: scale not given here; settings: H358 cells expressing KRAS G12C protein, 3 h incubation with compound; read-out: IC50, inhibiting phosphorylation of KRAS G12C protein-mediated downstream signaling (p-ERK)
# T1 construct: H358 cells (ATCC, CRL-5807) expressing KRAS G12C protein; host or cells: H358 (NCI-H358) cells
# T1 sequence (P01116 1-188 isoform P01116-2 G12C): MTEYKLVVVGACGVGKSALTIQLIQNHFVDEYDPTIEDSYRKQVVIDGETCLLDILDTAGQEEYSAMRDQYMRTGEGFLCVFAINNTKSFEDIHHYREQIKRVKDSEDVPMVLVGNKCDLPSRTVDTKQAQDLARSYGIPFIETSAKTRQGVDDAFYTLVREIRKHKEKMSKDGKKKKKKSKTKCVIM
# Protocol: The cells were cultured in a 5% CO2 cell incubator for 16 h. The serially diluted compound was added to the cell medium with Echo550 at a final DMSO concentration of 0.5%, and the incubation was continued for 3 h. Then 8% paraformaldehyde (Solarbio, P1112) was added at 40 μL/well, followed by incubation at room temperature for 20 min. After one washing with PBS, cold 100% methanol was added at 40 μL/well for permeabilization for 10 min. […] Washing with PBST was performed 3 times, with 2 min of incubation for each washing. […] Washing with PBST was performed 3 times, with 2 min of incubation for each washing. Finally, the cell culture plate was inverted and centrifuged at 1000 rpm for 1 min, after which fluorescence signals were read using Odyssey CLx.
# [2] = Stability test in human plasma
IC50 [1],Structure (SMILES),further results
< 1000 nM,"C=CC(=O)N1CCN(c2nc(OC[C@@H]3CCCN3[11CH3])nc3c2CCN(c2cccc4cccc(C)c24)C3)C[C@@H]1CC#N [Compound 25, 2-((S)-1-acryloyl-4-(2-(((S)-1-(methyl-^11C)pyrrolidin-2-yl)methoxy)-7-(8-methylnaphthalen-1-yl)-5,6,7,8-tetrahydropyrido[3,4-d]pyrimidin-4-yl)piperazin-2-yl)acetonitrile]",–
< 1000 nM,"C=CC(=O)N1CCN(c2nc(OC[C@@H]3CCCN3[13CH3])nc3c2CCN(c2cccc4cccc(C)c24)C3)C[C@@H]1CC#N [Compound 26, 2-((S)-1-acryloyl-4-(2-(((S)-1-(methyl-^13C)pyrrolidin-2-yl)methoxy)-7-(8-methylnaphthalen-1-yl)-5,6,7,8-tetrahydropyrido[3,4-d]pyrimidin-4-yl)piperazin-2-yl)acetonitrile]",–
< 1000 nM,"[2H]C([2H])([2H])N1CCC[C@H]1COc1nc2c(c(N3CCN(C(=O)C(=C)F)[C@@H](CC#N)C3)n1)CCN(c1cccc3cccc([14CH3])c13)C2 [Compound 29, 2-((S)-1-(2-fluoroacryloyl)-4-(2-(((S)-1-(methyl-d3)pyrrolidin-2-yl)methoxy)-7-(8-(methyl-^14C)naphthalen-1-yl)-5,6,7,8-tetrahydropyrido[3,4-d]pyrimidin-4-yl)piperazin-2-yl)acetonitrile]",–
< 1000 nM,"[2H]C([2H])([2H])CN1CCC[C@H]1COc1nc2c(c(N3CCN(C(=O)C=C)[C@@H](CC#N)C3)n1)CCN(c1cccc3cccc(Cl)c13)C2 [Compound 34, 2-((S)-1-acryloyl-4-(7-(8-chloronaphthalene-1-yl)-2-(((S)-1-(ethyl-2,2,2-d3)pyrrolidin-2-yl)methoxy)-5,6,7,8-tetrahydropyrido[3,4-d]pyrimidin-4-yl)piperazin-2-yl)acetonitrile]",–
< 1000 nM,"[2H]C([2H])([2H])C([2H])(N1CCC[C@H]1COc1nc2c(c(N3CCN(C(=O)C=C)[C@@H](CC#N)C3)n1)CCN(c1cccc3cccc(C)c13)C2)C([2H])([2H])[2H] [Compound 37, 2-((S)-1-acryloyl-4-(7-(8-methylnaphthalen-1-yl)-2-(((S)-1-(isopropyl-d7)pyrrolidin-2-yl)methoxy)-5,6,7,8-tetrahydropyrido[3,4-d]pyrimidin-4-yl)piperazin-2-yl)acetonitrile]",–
< 1000 nM,"[2H]C([2H])([2H])C([2H])(N1CCC[C@H]1COc1nc2c(c(N3CCN(C(=O)C=C)[C@@H](CC#N)C3)n1)CCN(c1cccc3cccc(Cl)c13)C2)C([2H])([2H])[2H] [Compound 38, 2-((S)-1-acryloyl-4-(7-(8-chloronaphthalene-1-yl)-2-(((S)-1-(isopropyl-d7)pyrrolidin-2-yl)methoxy)-5,6,7,8-tetrahydropyrido[3,4-d]pyrimidin-4-yl)piperazin-2-yl)acetonitrile]",–
< 1000 nM,"C=CC(=O)N1CCN(c2nc(OC[C@@H]3CCCN3[14CH3])nc3c2CCN(c2cccc4cccc(C)c24)C3)C[C@@H]1CC#N [Compound 39, 2-((S)-1-acryloyl-4-(2-(((S)-1-(methyl-^14C)pyrrolidin-2-yl)methoxy)-7-(8-methylnaphthalen-1-yl)-5,6,7,8-tetrahydropyrido[3,4-d]pyrimidin-4-yl)piperazin-2-yl)acetonitrile]",–

# The remaining lines, values behind:
Structure (SMILES),IC50 [1],further results
"[2H]C([2H])([2H])N1CCC[C@H]1COc1nc2c(c(N3CCN(C(=O)C=C)[C@@H](CC#N)C3)n1)CCN(c1cncc3cccc(C)c13)C2 [Compound 30, 2-((S)-1-acryloyl-4-(2-(((S)-1-(methyl-d3)pyrrolidin-2-yl)methoxy)-7-(5-methylisoquinolin-4-yl)-5,6,7,8-tetrahydropyrido[3,4-d]pyrimidin-4-yl)piperazin-2-yl)acetonitrile]",< 1000 nM,–
"[2H]C([2H])([2H])N1CCC[C@H]1COc1nc2c(c(N3CCN(C(=O)C=C)[C@@H](CC#N)C3)n1)CCN(c1cncc3cccc([13CH3])c13)C2 [Compound 31, 2-((S)-1-acryloyl-4-(2-(((S)-1-(methyl-d3)pyrrolidine-2-yl)methoxy)-7-(5-(methyl-^13C)isoquinolin-4-yl)-5,6,7,8-tetrahydropyrido[3,4-d]pyrimidin-4-yl)piperazin-2-yl)acetonitrile]",< 1000 nM,–
"[2H]C([2H])([2H])N1CCC[C@H]1COc1nc2c(c(N3CCN(C(=O)C=C)[C@@H](CC#N)C3)n1)CCN(c1cncc3cccc([14CH3])c13)C2 [Compound 32, 2-((S)-1-acryloyl-4-(2-(((S)-1-(methyl-d3)pyrrolidine-2-yl)methoxy)-7-(5-(methyl-^14C)isoquinolin-4-yl)-5,6,7,8-tetrahydropyrido[3,4-d]pyrimidin-4-yl)piperazin-2-yl)acetonitrile]",< 1000 nM,–
"[2H]C([2H])([2H])CN1CCC[C@H]1COc1nc2c(c(N3CCN(C(=O)C=C)[C@@H](CC#N)C3)n1)CCN(c1cccc3cccc(C)c13)C2 [Compound 33, 2-((S)-1-acryloyl-4-(2-(((S)-1-(ethyl-2,2,2-d3)pyrrolidin-2-yl)methoxy)-7-(8-methylnaphthalen-1-yl)-5,6,7,8-tetrahydropyrido[3,4-d]pyrimidin-4-yl)piperazin-2-yl)acetonitrile]",< 1000 nM,–
"[2H]C([2H])([2H])C([2H])([2H])N1CCC[C@H]1COc1nc2c(c(N3CCN(C(=O)C=C)[C@@H](CC#N)C3)n1)CCN(c1cccc3cccc(C)c13)C2 [Compound 35, 2-((S)-1-acryloyl-4-(2-(((S)-1-(ethyl-d5)pyrrolidin-2-yl)methoxy)-7-(8-methylnaphthalen-1-yl)-5,6,7,8-tetrahydropyrido[3,4-d]pyrimidin-4-yl)piperazin-2-yl)acetonitrile]",< 1000 nM,–
"[2H]C([2H])([2H])C([2H])([2H])N1CCC[C@H]1COc1nc2c(c(N3CCN(C(=O)C=C)[C@@H](CC#N)C3)n1)CCN(c1cccc3cccc(Cl)c13)C2 [Compound 36, 2-((S)-1-acryloyl-4-(7-(8-chloronaphthalene-1-yl)-2-(((S)-1-(ethyl-d5)pyrrolidin-2-yl)methoxy)-5,6,7,8-tetrahydropyrido[3,4-d]pyrimidin-4-yl)piperazin-2-yl)acetonitrile]",< 1000 nM,–
"CC(C)[N+](C)(CCOC(=O)C1c2ccccc2Oc2ccccc21)C(C)C [Propantheline Bromide, reference compound]",–,"Remaining percentage (%) 0 min ([2]; human plasma, 37° C., 0 min): 100.00%; Remaining percentage (%) 30 min ([2]; human plasma, 37° C., 30 min): 33.35%; Remaining percentage (%) 60 min ([2]; human plasma, 37° C., 60 min): 7.71%; Remaining percentage (%) 120 min ([2]; human plasma, 37° C., 120 min): 0.15%; Remaining percentage (%) 180 min ([2]; human plasma, 37° C., 180 min): BLOD; Remaining percentage (%) 240 min ([2]; human plasma, 37° C., 240 min): BLOD; half-life at 5 μM ([2]; human, plasma): 19 min"
